Data as given in paper PMC9220805, “The 26S Proteasome Switches between ATP-Dependent and -Independent Mechanisms in Response to Substrate Ubiquitination” (Biomolecules, 2022).

Test system: T1, 26S proteasome (WT proteasome)
T1 construct: gene RPT1; native 26S holoenzyme (19S + 20S) purified by 3xFLAG-tagged Rpn11; with Ubiquitin carboxyl-terminal hydrolase RPN11
Assay: SDS-PAGE fluorescence degradation assay of Cy5-labelled ubiquitinated substrate
Assay type: biochemical, Saccharomyces cerevisiae
Settings: 1 mM ATPγS in place of ATP regeneration system; 100 nM proteasome, 20 nM substrate, 5 mM MgCl2, pH 7.5, 30 °C; nonhydrolyzable ATP analog

## Nc1ncnc2c1ncn2[C@@H]1O[C@H](COP(=O)(O)OP(=O)(O)OP(O)(O)=S)[C@@H](O)[C@H]1O [ATPγS]
  SDS-PAGE fluorescence degradation assay of Cy5-labelled ubiquitinated substrate: ATPγS considerably slowed degradation of the ubiquitinated-Rpn4-containing substrate
